Data from the NIST ThermoML archive (doi:10.1016/j.jct.2013.07.003).
± gives the expanded uncertainty stated by the source.

Experiments:
[1] = relative permittivity at various frequencies (dimensionless); settings: 101 kPa, Liquid, Frequency=0.1 MHz, Coaxial cylinder capacitor
[2] = refractive index (Na D-line) (dimensionless); settings: 101.33 kPa, Liquid, Standard Abbe refractometry
[3] = 298.2 K; 101.33 kPa; Liquid; Vibrating tube method
[4] = relative permittivity at various frequencies (dimensionless); xn = mol fraction of the nth substance listed; settings: 101 kPa, Liquid, Frequency=0.1 MHz, Coaxial cylinder capacitor, x2 = 0
[5] = refractive index (Na D-line) (dimensionless); xn = mol fraction of the nth substance listed; settings: 101 kPa, Liquid, Standard Abbe refractometry, x2 = 0

## CC(O)CCO (stereo not drawn) [1,3-butanediol]
[1]; 298.2 K
  relative permittivity: 28.52 ± 0.04
[1]; 303.2 K
  relative permittivity: 27.66 ± 0.04
[1]; 308.2 K
  relative permittivity: 26.77 ± 0.04
[1]; 313.2 K
  relative permittivity: 25.98 ± 0.04
[1]; 318.2 K
  relative permittivity: 25.22 ± 0.04
[2]; 298.2 K
  refractive index: 1.4384 ± 0.0005
[2]; 303.2 K
  refractive index: 1.4371 ± 0.0005
[2]; 308.2 K
  refractive index: 1.4356 ± 0.0005
[2]; 313.2 K
  refractive index: 1.4341 ± 0.0005
[2]; 318.2 K
  refractive index: 1.4328 ± 0.0005
[3]
  mass density: 1001.2 ± 0.24 kg/m3

## C1COCCO1 [1,4-dioxane]
[1]; 298.2 K
  relative permittivity: 2.23 ± 0.02
[1]; 303.2 K
  relative permittivity: 2.22 ± 0.02
[1]; 308.2 K
  relative permittivity: 2.21 ± 0.02
[1]; 313.2 K
  relative permittivity: 2.2 ± 0.02
[1]; 318.2 K
  relative permittivity: 2.19 ± 0.02
[2]; 298.2 K
  refractive index: 1.4201 ± 0.0005
[2]; 303.2 K
  refractive index: 1.4174 ± 0.0005
[2]; 308.2 K
  refractive index: 1.4145 ± 0.0005
[2]; 313.2 K
  refractive index: 1.4118 ± 0.0005
[2]; 318.2 K
  refractive index: 1.4088 ± 0.0005
[3]
  mass density: 1027.89 ± 0.12 kg/m3

## C1COCCO1 [1,4-dioxane] + CC(O)CCO
[4]; 298.2 K
  relative permittivity: 2.23 ± 0.02
[4]; 303.2 K
  relative permittivity: 2.22 ± 0.02
[4]; 308.2 K
  relative permittivity: 2.21 ± 0.02
[4]; 313.2 K
  relative permittivity: 2.2 ± 0.02
[4]; 318.2 K
  relative permittivity: 2.19 ± 0.02
[5]; 298.2 K
  refractive index: 1.4201 ± 0.0005
[5]; 303.2 K
  refractive index: 1.4174 ± 0.0005
[5]; 308.2 K
  refractive index: 1.4145 ± 0.0005
[5]; 313.2 K
  refractive index: 1.4118 ± 0.0005
[5]; 318.2 K
  refractive index: 1.4088 ± 0.0005

## CCCCCCCCO [octan-1-ol]
[1]; 298.2 K
  relative permittivity: 9.81 ± 0.03
[1]; 303.2 K
  relative permittivity: 9.38 ± 0.03
[1]; 308.2 K
  relative permittivity: 8.94 ± 0.03
[1]; 313.2 K
  relative permittivity: 8.52 ± 0.03
[1]; 318.2 K
  relative permittivity: 8.11 ± 0.03
[2]; 298.2 K
  refractive index: 1.4276 ± 0.0005
[2]; 303.2 K
  refractive index: 1.4254 ± 0.0005
[2]; 308.2 K
  refractive index: 1.423 ± 0.0005
[2]; 313.2 K
  refractive index: 1.4205 ± 0.0005
[2]; 318.2 K
  refractive index: 1.4184 ± 0.0005
[3]
  mass density: 821.69 ± 0.24 kg/m3

## CCCCCCCCO [octan-1-ol] + CC(O)CCO
[4]; 298.2 K
  relative permittivity: 9.81 ± 0.03
[4]; 303.2 K
  relative permittivity: 9.38 ± 0.03
[4]; 308.2 K
  relative permittivity: 8.94 ± 0.03
[4]; 313.2 K
  relative permittivity: 8.52 ± 0.03
[4]; 318.2 K
  relative permittivity: 8.11 ± 0.03
[5]; 298.2 K
  refractive index: 1.4276 ± 0.0005
[5]; 303.2 K
  refractive index: 1.4254 ± 0.0005
[5]; 308.2 K
  refractive index: 1.423 ± 0.0005
[5]; 313.2 K
  refractive index: 1.4205 ± 0.0005
[5]; 318.2 K
  refractive index: 1.4184 ± 0.0005
